The record followed here is patent US5441932A, “Sugar compounds for inhibition of the biosynthesis of sugar chains containing sialic acid” (priority 1992, dated 1995).

Series [1] in a line: Solubility (physical properties). Type of series: physicochemical. The following applies: qualitative, in words.
In series [2] the target is β-galactoside-α-2, 6-sialyltransferase. The series can be described thus: Inhibition of β-galactoside-α-2,6-sialyltransferase enzyme activity (biosynthesis of sugar chains containing sialic acid, test system of Paulson et al.). The following applies: β-galactoside-α-2,6-sialyltransferase 1×10^-6 units, 0.075 nmol CMP-14C sialic acid, 3 mM β-methyllactosaminide, pH 6.5, 37° C., 10 minutes; read-out: 50% activity inhibition concentration. Format: biochemical.
Procedure: In other words, the tests were conducted using a test system of the biosynthesis of sialic acid-sugar chains containing sialic acid which was reported by Paulson et al.
A tester solution was prepared containing the following respective reagents in 50 μl of final contents:
100 mM sodium cacodylate buffer solution (pH 6.5);
0.075 nmol cytidine-monophosphate-14C sialic acid;
3 mM β-methyllactosaminide;
A specimen compound was added in 50 μl of the tester solution, and, with addition of 1×10^-6 units of β-galactoside-α-2, 6-sialyltransferase commercially available, the mixture was left to stand at 37° C. for 10 minutes. 1 ml of 5 mM phosphoric acid buffer solution was added to stop the reaction. Then the solution was passed through an anion-exchange resin column (Dowex-1X8, phosphoric acid type, 1 ml) to remove unreacted cytidine-monophosphate-14C sialic acid. Further, the column was washed with 1 ml of 5 mM phosphoric acid buffer solution to recover radioactive sialic acid-containing sugar chains. The radioactivity was measured by a liquid scintillation counter.
The thus-measured radioactivity was shown by percentage to the radioactivity of untreated section not including the specimen compound, which was defined as inhibition activity.

Series [3] is described as follows: Stability in acid (physical properties). Type of series: physicochemical.

“Also recorded” adds a separate entry of the source.

For the molecule `CC(=O)N[C@H]1C(O)O[C@H](CO)[C@@H](O[C@@H]2O[C@H](C)[C@H](O)[C@H](O)[C@H]2O)[C@@H]1O` (stereo partly drawn) [Sugar compound B, α- and β-2-acetamide-2-deoxy-4-O-(6-deoxy-β-D-galactopyranosyl)-D-glucose], the Solubility result in series [1] was “Soluble in water, alkaline solutions, acid solutions, various buffer solutions, methanol, and ethanol. Hardly soluble in hexane and in chloroform”. Consider `CO[C@@H]1O[C@H](COC(C)=O)[C@@H](O[C@@H]2O[C@H](CO)[C@H](O)[C@H](OC(C)=O)[C@H]2OC(C)=O)[C@H](OC(C)=O)[C@H]1NC(C)=O` [intermediate d, methyl-2-acetamide-3,6-di-O-acetyl-2-deoxy-4-O-(2,3-di-O-acetyl-β-D-galactopyranosyl)-β-D-glucopyranoside], for which, in series [1], the Solubility result was “Soluble in chloroform, methanol, and ethanol. Hardly soluble in water and various buffer solutions”. Take `CO[C@@H]1O[C@H](CO)[C@@H](O[C@@H]2O[C@H](C)[C@H](O)[C@H](O)[C@H]2O)[C@H](O)[C@H]1NC(C)=O` [Sugar compound A, methyl-2-acetamide-2-deoxy-4-O-(6-deoxy-β-D-galactopyranosyl)-β-D-glucopyranoside]: the Solubility entry in series [1] was “Soluble in water, alkaline solutions, acid solutions, various buffer solutions, methanol, and ethanol. Hardly soluble in hexane and in chloroform”. Consider `CO[C@@H]1O[C@H](CO)[C@@H](O[C@@H]2O[C@H](COC3CCCCO3)[C@H](O)[C@H](O)[C@H]2O)[C@H](O)[C@H]1NC(C)=O` (stereo partly drawn) [Sugar compound G, methyl-2-acetamide-2-deoxy-4-O-(6-O-tetrahydropyranyl-β-D-galactopyranosyl)-β-D-glucopyranoside], for which, in series [1], the Solubility result is “Soluble in water, alkaline solutions, acid solutions, various buffer solutions, methanol, and ethanol. Hardly soluble in hexane and in chloroform”. On to `CO[C@@H]1O[C@H](COC(C)=O)[C@@H](O[C@@H]2O[C@H](COS(=O)(=O)c3ccc(C)cc3)[C@H](OC(C)=O)[C@H](OC(C)=O)[C@H]2OC(C)=O)[C@H](OC(C)=O)[C@H]1NC(C)=O` [intermediate h, methyl-2-acetamide-3,6-di-O-acetyl-2-deoxy-4-O-(2,3,4-tri-O-acetyl-6-O-p-toluenesulfonyl-β-D-galactopyranosyl)-β-D-glucopyranoside], for which the Solubility entry in series [1] was “Soluble in chloroform, methanol, and ethanol. Hardly soluble in water and various buffer solutions”.

For the molecule `CO[C@@H]1O[C@H](COC(C)=O)[C@@H](O[C@@H]2O[C@H](COC3CCCCO3)[C@H](OC(C)=O)[C@H](OC(C)=O)[C@H]2OC(C)=O)[C@H](OC(C)=O)[C@H]1NC(C)=O` (stereo partly drawn) [intermediate g, methyl-2-acetamide-3,6-di-O-acetyl-2-deoxy-4-O-(2,3,4-tri-O-acetyl-6-O-tetrahydropyranyl-β-D-galactopyranosyl)-β-D-glucopyranoside], the Solubility result in series [1] is “Soluble in chloroform, methanol, and ethanol. Hardly soluble in water and various buffer solutions”.

Turning to “2-acetamide-2-deoxy-4-O-( 6-deoxy-β-D-galactopyranosyl)-β -D-glucopyranosylated fetuin [Sugar compound D]”, the Solubility result in series [1] is “Soluble in water and various buffer solutions. Hardly soluble in organic solvents”. For the same molecule, in series [2], the IC50 turned out to be 4.2 µM.

`CO[C@@H]1O[C@H](COC(C)=O)[C@@H](O[C@@H]2O[C@@H]3COC(c4ccccc4)O[C@@H]3[C@H](OC(C)=O)[C@H]2OC(C)=O)[C@H](OC(C)=O)[C@H]1NC(C)=O` (stereo partly drawn) [intermediate c, methyl-2-acetamide-3,6-di-O-acetyl-2-deoxy-4-O-(2,3-di-O-acetyl-4,6-O-benzylidene-β-D-galactopyranosyl)-β-D-glucopyranoside]: the Solubility entry in series [1] is “Soluble in chloroform, methanol, and ethanol. Hardly soluble in water and various buffer solutions”. As to “2-acetamide-2-deoxy-4-O-(6-deoxy-β-D-galactopyranosyl)-β-D-glucopyranosylated α2-macroglobulin [Sugar compound F]”, the Solubility result in series [1] was “Soluble in water and various buffer solutions. Hardly soluble in organic solvents”. For the same molecule, the IC50 in series [2] worked out at 1 µM. With `CO[C@@H]1O[C@H](COC(C)=O)[C@@H](O[C@@H]2O[C@H](CO[Si](C)(C)C(C)(C)C)[C@H](OC(C)=O)[C@H](OC(C)=O)[C@H]2OC(C)=O)[C@H](OC(C)=O)[C@H]1NC(C)=O` [intermediate e, methyl-2-acetamide-3,6-di-O-acetyl-2-deoxy-4-O-(2,3,4-tri-O-acetyl-6-O-t-butyldimethylsilyl-β-D-galactopyranosyl)-β-D-glucopyranoside], in series [1], the Solubility result was “Soluble in chloroform, methanol, and ethanol. Hardly soluble in water and various buffer solutions”.

For “2-acetamide-2-deoxy-4-O-(6-deoxy-β-D-galactopyranosyl)-β-D-glucopyranosylated ovalbumin [Sugar compound C, sugar compound represented by the aforementioned formula (1) in which R^1 is ovalbumin and R^2 is hydrogen]”, the IC50 in series [2] came out at 10 µM. Turning to `C[C@H]1O[C@H](OP(=O)(O)OP(=O)(O)OC[C@H]2O[C@@H](n3ccc(=O)[nH]c3=O)[C@H](O)[C@@H]2O)[C@H](O)[C@@H](O)[C@H]1O` [intermediate b, uridine 5'-diphosphate-6-deoxy-D-galactose], the Solubility entry in series [1] is “Soluble in water, alkaline solutions, and various buffer solutions; also recorded: Hardly soluble in organic solvents”. For the same molecule, in series [3], the Decomposition in acid result was “Decomposed in acid”.

Consider `CO[C@@H]1O[C@H](CO)[C@@H](O[C@@H]2O[C@H](CS)[C@H](O)[C@H](O)[C@H]2O)[C@H](O)[C@H]1NC(C)=O` [Sugar compound H, methyl-2-acetamide-2-deoxy-4-O-(6-mercapto-β-D-galactopyranosyl)-β-D-glucopyranoside], for which, in series [1], the Solubility result was “Soluble in water, alkaline solutions, acid solutions, various buffer solutions, methanol, and ethanol. Hardly soluble in hexane and in chloroform”. On to `CO[C@@H]1O[C@H](COC(C)=O)[C@@H](O[C@@H]2O[C@H](CSC(C)=O)[C@H](OC(C)=O)[C@H](OC(C)=O)[C@H]2OC(C)=O)[C@H](OC(C)=O)[C@H]1NC(C)=O` [intermediate i, methyl-2-acetamide-3,6-di-O-acetyl-2-deoxy-4-O-(2,3,4-tri-O-acetyl-6-S-acetyl-6-deoxy-β-D-galactopyranosyl)-β-D-glucopyranoside], for which the Solubility entry in series [1] was “Soluble in chloroform, methanol, and ethanol. Hardly soluble in water and various buffer solutions”. The same measure, in the same setting: then `CO[C@@H]1O[C@H](COC(C)=O)[C@@H](O[C@@H]2O[C@H](CO)[C@H](OC(C)=O)[C@H](OC(C)=O)[C@H]2OC(C)=O)[C@H](OC(C)=O)[C@H]1NC(C)=O` [intermediate f, methyl-2-acetamide-3,6-di-O-acetyl-2-deoxy-4-O-(2,3,4-tri-O-acetyl-β-D-galactopyranosyl)-β-D-glucopyranoside], with “Soluble in chloroform, methanol, and ethanol. Hardly soluble in water and various buffer solutions”.

B1: 2-acetamide-2-deoxy-4-O-(6-deoxy-β-D-galactopyranosyl)-β-D-glucopyranosylated glycophorin (conjugate, UniProt P02724 20-150, looked up)
Glycophorin-A: LSTTEVAMHTSTSSSVTKSYISSQTNDTHKRDTYAATPRAHEVSEISVRTVYPPEEETGERVQLAHHFSEPEITLIIFGVMAGVIGTILLISYGIRRLIKKSPSDVKPLPSPDTDVPLSSVEIENPETSDQ
modifications: glycosylated with fucosyl-GlcNAc disaccharide
notes: sugar compound represented by the aforementioned formula (1) in which R^1 is glycophorin and R^2 is hydrogen
For the molecule B1, in series [1], the Solubility entry is “Soluble in water and various buffer solutions. Hardly soluble in organic solvents”. The IC50 in series [2] was determined as 2.7 µM.

B2: 2-acetamide-2-deoxy-4-O-(6-deoxy-β-D-galactopyranosyl)-β-D-glucopyranosylated ovalbumin (conjugate, UniProt P01012 2-386, looked up)
Ovalbumin: GSIGAASMEFCFDVFKELKVHHANENIFYCPIAIMSALAMVYLGAKDSTRTQINKVVRFDKLPGFGDSIEAQCGTSVNVHSSLRDILNQITKPNDVYSFSLASRLYAEERYPILPEYLQCVKELYRGGLEPINFQTAADQARELINSWVESQTNGIIRNVLQPSSVDSQTAMVLVNAIVFKGLWEKAFKDEDTQAMPFRVTEQESKPVQMMYQIGLFRVASMASEKMKILELPFASGTMSMLVLLPDEVSGLEQLESIINFEKLTEWTSSNVMEERKIKVYLPRMKMEEKYNLTSVLMAMGITDVFSSSANLSGISSAESLKISQAVHAAHAEINEAGREVVGSAEAGVDAASVSEEFRADHPFLFCIKHIATNAVLFFGRCVSP
modifications: glycosylated with fucosyl-GlcNAc disaccharide
notes: sugar compound represented by the aforementioned formula (1) in which R^1 is ovalbumin and R^2 is hydrogen
Take B2: the Solubility result in series [1] is “Soluble in water and various buffer solutions. Hardly soluble in organic solvents”.
